Experimental data taken from US10253274B2, “Compounds and methods for inhibiting corrosion in hydrocarbon processing units” (General Electric Company, priority 2012, dated 2019).
Where two headings read alike, the source gives them in different places.

Assays:
[1] = Neutralization efficiency by two-phase titration (pH at amine titrant concentration); format: physicochemical; details: 100° C.; for Neutral. Efficiency pH at 250 ppm: 250 ppm amine titrant; for Neutral. Efficiency pH at 500 ppm: 500 ppm amine titrant; for Neutral. Efficiency pH at 1000 ppm: 1000 ppm amine titrant
Protocol: Several amines were tested to determine their efficiencies in neutralizing acidic species and reducing deposits of hydrochloride and amine salts. The neutralization efficiency of these amines was tested using two-phase titration. For each amine tested, a titrand (100 ml) was placed in a flask. The titrand was designed to simulate an initial condensate and comprised 90 vol % naphtha and 10 vol % acidic water. The titrand was heated to 100° C. and maintained at that temperature while amine titrant was added to the flask.
A second set of tests were performed using some of the effective amines above. Additional tertiary amines were also tested and found to be effective. The additional tertiary amines were N-methyl piperidine, 2-dimethylamino 2-methyl 1-propanol (“DMAMP”) in an azeotropic solution comprising 80 wt % amine, N,N,N′,N′-tetramethyldiamino methane (“TMMD”), dimethyl tertiary butanolamine (“DMTBA”), and dimethyl methoxypropylamine (“DMMOPA”). The neutralization efficiency of these amines was tested using two-phase titration. For each amine tested, a titrand (100 ml) was placed in a flask. The titrand was designed to simulate an initial condensate and comprised 90 vol % naphtha and 10 vol % acidic water. The titrand was heated to 100° C. and maintained at that temperature while amine titrant was added to the flask. The tests were repeated 3 times in the second set of tests. The data in Table 2 are the averages of the 3 repeated tests.

Boiling point = details: Table 2
[2] = Amine-HCl salt precipitation potential index (Salt PPI) relative to ammonia salt; format: physicochemical; details: average over 225 to 300° F., ammonia benchmark = 1.0
Text: Without limiting this specification to any particular theory of operation, the overall efficiency of a given amine may be predicted upon assessment of several factors. One such factor is the amine-HCl salt precipitation potential index (“Salt PPI”). The Salt PPI may also be known by those in the art as the salt volatility index. These indices are merely a comparison of the precipitation potential of the amine salt to the salt of a typical neutralizing compound used in hydrocarbon refining, ammonia.
Salt PPI may be calculated from the equation: […]
If one were to substitute the vapor pressure of ammonia for the vapor pressure of the amine in the equation, the Salt PPI would be 1.0. Effective amines are those that are as good, if not better than the typical additive, ammonia. Thus, effective amines would have a Salt PPI of equal to or less than 1.0. Other neutralizers commonly used in hydrocarbon refining are trimethylamine and N-methylmorpholine.

pKa of the amine = format: physicochemical
Text: Another factor indicative of the overall efficiency of a given amine is the logarithm of the acid dissociation constant, pKa. Generally, amines with higher pKa values are more efficient neutralizers. Accordingly, in another embodiment, the treatment composition may comprise an amine with a pKa equal to or greater than about 5.0.

[3] = Table 2, second set, averages of 3 repeated tests

## CN(C)CCN(C)C [N,N,N′,N′-tetramethylethylenediamine]
[1]; Table 1, first set of tests
  Neutral. Efficiency pH at 250 ppm: 4.7
  Neutral. Efficiency pH at 500 ppm: 6.7
  Neutral. Efficiency pH at 1000 ppm: 8.3
[1]; [3]
  Neutral. Efficiency pH at 250 ppm: 4.7
  Neutral. Efficiency pH at 500 ppm: 6.7
  Neutral. Efficiency pH at 1000 ppm: 8.3
Boiling point
  Boiling Point: 122 °C
[2]; Table 1
  Salt PPI: 0.27
[2]; Table 2
  Salt PPI: 0.48
Solubility Oil/Water; Table 1
  Solubility Oil/Water: Water
Solubility Oil/Water; Table 2
  Solubility Oil/Water: Water
pKa of the amine; Table 1, read-out: pKa
  pKa: 8.97
pKa of the amine; Table 2
  pKa: 8.97
